# Assay results: PubChem BioAssay AID1671295
# Target: Receptor tyrosine-protein kinase erbB-4 (Homo sapiens) (UniProt Q15303)
# Assay: inhibition of HER4 tyrosine kinase activity – biochemical, Z'-LYTE FRET, direct format, recombinant human, dose response (AID 1671295)
# Settings: recombinant ERBB4
# Chain of Receptor tyrosine-protein kinase erbB-4 (Homo sapiens) (Q15303 whole entry, looked up): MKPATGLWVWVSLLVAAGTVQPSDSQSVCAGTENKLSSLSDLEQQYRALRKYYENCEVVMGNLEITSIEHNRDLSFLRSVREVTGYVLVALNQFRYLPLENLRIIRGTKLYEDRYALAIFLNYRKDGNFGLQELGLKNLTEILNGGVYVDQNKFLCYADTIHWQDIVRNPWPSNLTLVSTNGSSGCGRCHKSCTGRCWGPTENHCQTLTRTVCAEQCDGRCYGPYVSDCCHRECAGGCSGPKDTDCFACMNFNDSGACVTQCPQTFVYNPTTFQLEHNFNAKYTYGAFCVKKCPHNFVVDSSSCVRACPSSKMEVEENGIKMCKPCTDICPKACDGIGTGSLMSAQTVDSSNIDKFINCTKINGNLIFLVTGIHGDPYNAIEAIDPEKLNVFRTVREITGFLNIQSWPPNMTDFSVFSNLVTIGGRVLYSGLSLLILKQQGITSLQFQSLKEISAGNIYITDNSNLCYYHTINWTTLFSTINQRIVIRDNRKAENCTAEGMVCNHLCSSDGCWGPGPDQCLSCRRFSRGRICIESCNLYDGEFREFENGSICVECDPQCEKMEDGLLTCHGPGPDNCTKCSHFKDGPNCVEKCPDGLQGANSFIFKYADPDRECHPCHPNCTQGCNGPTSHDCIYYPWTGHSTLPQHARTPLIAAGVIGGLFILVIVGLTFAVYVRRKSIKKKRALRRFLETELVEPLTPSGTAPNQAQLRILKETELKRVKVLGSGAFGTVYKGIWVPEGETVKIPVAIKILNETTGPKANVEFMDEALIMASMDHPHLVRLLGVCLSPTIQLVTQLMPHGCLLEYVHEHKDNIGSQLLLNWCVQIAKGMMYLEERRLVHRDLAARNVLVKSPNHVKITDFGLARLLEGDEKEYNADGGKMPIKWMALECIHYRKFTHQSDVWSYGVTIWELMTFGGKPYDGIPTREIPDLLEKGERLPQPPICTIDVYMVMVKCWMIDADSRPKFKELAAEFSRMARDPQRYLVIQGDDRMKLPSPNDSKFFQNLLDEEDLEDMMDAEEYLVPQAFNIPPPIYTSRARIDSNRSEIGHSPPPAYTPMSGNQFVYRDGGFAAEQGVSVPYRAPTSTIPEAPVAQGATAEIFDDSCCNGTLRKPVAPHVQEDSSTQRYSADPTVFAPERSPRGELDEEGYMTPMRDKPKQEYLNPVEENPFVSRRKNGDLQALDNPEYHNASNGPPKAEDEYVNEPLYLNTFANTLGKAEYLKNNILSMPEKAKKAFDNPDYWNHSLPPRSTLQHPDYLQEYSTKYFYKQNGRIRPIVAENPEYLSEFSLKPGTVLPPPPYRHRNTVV
smiles,measurement,value
COc1cc2ncnc(Nc3cccc(Cl)c3)c2cc1OC,IC50,154 nM
